Measured values taken from patent publication US7582652B2, “Kinase inhibitors” (Eli Lilly and Company, priority 2004, dated 2009).

Assays:
[1] = test system: MAPKAP-K2 phosphorylation in B16F10 melanoma tumors; assay: B16F10 melanoma target (MAPKAP-K2 phosphorylation); type: in vivo, C57B16 mice; conditions: p.o., B16F10 tumors in mice, MAPKAP-K2 phosphorylation by immuno-blot
Method: B16F10 Melanoma Target (MAPKAP-K2 Phosphorylation)
The B16F10 melanoma cell line is obtained from the American Type Culture Collection, Rockville, Md. The cells are cultured in RPMI-1640 medium supplemented with 10% fetal calf serum. The cells grown in vitro are harvested during their exponential growth phase by gentle trypsinization, washed twice in medium, and resuspended in serum-free RPMI-1640 medium. The number of viable cells is determined using a hemocytometer and adjusted to 1×10^7/mL. Tumor cells are injected subcutaneously in normal C57B16 mice. Inoculum volume per mouse is 0.2 mL (2,000,000 cells). When the tumors reach 300-500 mg, the mice are used for target inhibition studies at either a fixed time (2.5 hours) after p.o. compound treatment or pharmacodynamic studies where the tumors are collected at multiple time-points (e.g., 3, 6, 9, 12, 15, and 18 h) after p.o. compound treatment.
Protein Extraction and Immuno-Blot Analysis
Tumors collected as described above are immediately snap-frozen in liquid nitrogen and stored at −80° C. […] The supernatant is transferred to fresh prechilled microfuge tubes and protein concentrations are measured using Bio-Rad protein assay reagents using bovine serum albumin as protein standard.
Protein extracts are equalized with the extraction buffer. […] Protein bands of interest are quantified from films using Kodak Image Station 1000.

[2] = test system: collagen induced arthritis (ankle diameter); assay: Rat collagen induced arthritis efficacy model; type: in vivo, female Lewis rats; conditions: PO bid x 14 days, AUC of composite inflammation scores
Method: Rat Collagen Induced Arthritis Efficacy Model
Female Lewis rats (≅190 g, Charles River Labs) are immunized with Bovine type II collagen (2 mg/mL) emulsified with an equal volume of adjuvant (aluminum hydroxide). […]. The rats are immunized with approximately […] of the emulsion intradermally on the back near the base of the tail. All animals are re-immunized 7 days later according to the same protocol. The rats begin to develop arthritis (characterized by swelling and redness of one or both ankles) from 12 to 14 days after the first immunization. The rats are equally distributed into five treatment groups at the first signs of arthritis and treatment is initiated with each rat dosed bid for 14 days.
Ankle diameter is measured with calipers 5 days a week and recorded. Data is expressed as the area under the curve (AUC) generated from the composite inflammation scores and statistical analysis performed.

CC(C)(C)Cn1c(N)nc2ccc(-c3nc(C(C)(C)C)[nH]c3-c3ccc(F)cc3)nc21.CS(=O)(=O)O.CS(=O)(=O)O [EXAMPLE 104, Crystalline 5-[2-tert-Butyl-5-(4-fluoro-phenyl)-1H-imidazol-4-yl]-3-(2,2-dimethyl-propyl)-3H-imidazo[4,5-b]pyridin-2-ylamine dimethanesulfonate]
TMED50 [1]: 3.59 mg/kg | TMED50 [2]: 1.5 mg/kg (b.i.d.)
